Data from patent EP2958933B1, “CROSSLINKED PEPTIDE HYDROGELS” (Agency for Science, Technology and Research, priority 2013, dated 2018).
Peptide text beside a SMILES is read from it.

How the values were obtained:
[1] = Concentration dependence of self-assembly (aggregates, fibers); assay type: physicochemical
From the text: An amphiphilic linear sequence of an amphiphilic peptide and/or peptoid disclosed herein, including an amphiphilic linear peptide and/or peptoid, is capable of providing a self assembling α-helical fiber in aqueous solution under physiological conditions. The peptides/peptoids (typically 3-7-mers) in the L- or D-form can self assemble into supramolecular helical fibers which are organized into mesh-like structures mimicking biological substances such as collagen. It has previously been observed in X-ray crystallography that peptides of a length of 3 to 6 amino acids with repetitive alanine containing sequences and an acetylated […] take a helical conformation (Hatakeyama, Y, et al, Angew. Chem. Int. Ed. (2009) 8695-8698). Using peptides with an amphiphilic sequence disclosed herein, Ac-LD6 (L), the formation of aggregates has for example been observed already at 0.1 mg/ml. […] With a formation of fibers occurring under physiological conditions at concentrations below 2 mM a peptide/peptoid disclosed herein is well suited as an injectable hydrogel material that can form a hydrogel under physiological conditions. Also disclosed herein is an amphiphilic linear peptide and/or peptoid as defined above for tissue engineering as well as to a tissue engineering method that involves applying, including injecting a respective amphiphilic linear peptide and/or peptoid.

[2] = Oscillation rheology of casted crosslinkable gels (frequency and amplitude sweep); assay type: physicochemical; settings: for gel stiffness on LK6-doping: final concentration 12 mM, cast-and-soak 0.06% H2O2 two hours; for stiffness after water soak: without oxidation
Protocol: Peptide was dissolved in 200 µL of water +/- H2O2 and filled into custom-made hollow ring casts (diameter ∼1 cm). The ring ends were sealed with parafilm to minimise evaporation and the cast was kept at 25°C for 22 hours before further manipulations.
(§1) Rheology: The rheological properties of casted gels were measured with an ARES-G2 (TA Instruments, USA) using the oscillation method. Frequency-sweep studies were performed with ω=0-100 rad/s at strain, γ=0.1%. The gel stiffness was represented by plotting G' against ω. Amplitude-sweep studies were performed beforehand at 1 Hz with γ=0-100%. The LVE limit of the gel was defined as the value of γ when G' first dropped below 90% of the average initial value.
as §1, with “The” for “Rheology: The”

[3] = Determination of a suitable gelation concentration; assay type: physicochemical; settings: for working concentration at which gels are formed: gels with sufficient mechanical integrity to withstand handling / gel formation
From the text: Reference is now made to the figures, wherein: • Figures 1A to 1M represent a sorted list of some exemplary peptides capable of forming hydrogels. These peptides are examples in which the entire peptide consists of a single linear amphiphilic sequence. Peptides which are forming hydrogels are named with a short code, but their individual sequence is disclosed. The peptides of these examples consist of a sequence of natural amino acids containing 3 to 7 amino acids. The N-terminus is acetylated which removes the charge that would otherwise restrain the amphiphilic character of the peptides. • Figure 2 depicts gelation pictures for peptide based hydrogels at lowest concentrations. • Figure 3 depicts gelation pictures for Ac-AS-6 (Ac-AIVAGS) (L) at concentrations of 5 mg/ml, 10 mg/ml, 15 mg/ml. • Figure 4 depicts a hypothesis of self-assembly from peptide monomers to supramolecular network of condensed fibers. (A) Assembly is believed to initiate with antiparallel pairing of two peptide monomers by changing to α-helical conformations. Subsequently, peptide pairs assemble to fibers and nanostructures. Condensation of peptide fibers to fiber aggregates results in hydrogel formation. • Figure 5 depicts environmental scanning electron microscopy (ESEM) images of hydrogels of Ac-LD6 (Ac-LIVAGD) (L) (10 mg/ml), where Fig. 5A, Fig. 5B and Fig. 5C are images obtained at magnification of 260X, 1000X, 2000X, 2400X, 4000X at a temperature of 4 °C with HV at 10KV. […] 8A), and 450 X (fig. […] (a) A honeycomb porous structure is observed following lyophilization of 20 mg/mL Ac-AD6 (Ac-AIVAGD) (D) hydrogel. The pores are bounded by membranes of condensed fibers as shown in close-up views of 15 mg/mL (b) and 20 mg/mL (c) Ac-ID3 (Ac-IVD) (L) hydrogels. […] Heating the samples to facilitate gelation increased the β type aggregation. […] (e) Far-UV CD spectra of AcID3 (Ac-IVD) at different concentrations. […] (a, b) The high mechanical strengths of different peptide hydrogels at 20 mg/mL concentration was determined by measuring storage moduli (G') as a function of angular frequency under 0.1% strain, at 25°C and 50°C respectively. […] (c) Mechanical strength is a function of concentration, as determined from oscillatory frequency sweep studies using Ac-LD6 (Ac-LIVAGD) (L) under 0.1% strain at 25°C. […] LK6 gels were therefore casted at different concentrations and their stiffness was measured (average ± s.d. of triplicates). As expected, G' values increased with peptide concentration and it was determined that a working concentration of 12 mM afforded gels with sufficient mechanical integrity to withstand handling. […]

[4] = Water soak of casted gels (resistance to degradation, shape retention); assay type: physicochemical; settings: non-oxidised gels, 24 hours of water soak
HepG2 cells [5] = experiment: 3D cell culture on gels, calcein live-cell staining; assay type: cell-based; settings: purified gels conjugated with different concentrations of RGD, after four days
Protocol: LK6C +/- CRGD gels were casted directly into 8-chamber Lab-Tek® wells (Nunc, NY, USA) and purified as reported in the SI. 0.5 mL of cell suspension in regular completed DMEM (Invitrogen, Singapore) was either seeded onto the gel or directly into the well (2D control) and incubated for four days. 0.5 µL of calcein-AM (Invitrogen) was then added to the media to identify live cells and images were captured using a confocal microscope (LSM5 DUO, Carl Zeiss, Germany). Beforehand, calcein-AM was verified to stain only live cells as ethanol- and H2O2-treated cells excluded the dye. All images, except for the 2D controls, were presented as mergers of several z-stacks. To further verify the 3D distribution of cells, the gel was embedded vertically in Jung Tissue Freezing Medium (Leica Instruments GmbH, Germany) and 20 µm cross-sectional slices were obtained with a cryostat (CM3050 S, Leica). Sections were mounted with coverslips and imaged as above.
To test for biocompatibility, HepG2 cells were either seeded directly into wells (2D control) or onto purified LK6C gels conjugated with different concentrations of RGD. […] This was repeated with primary rabbit fibroblasts (Figure 35), 3T3 murine fibroblasts (Figure 38) and NIH-3T3 murine fibroblasts (data not shown), confirming the biocompatibility of the gels. With regular media changes, cells remained viable for at least 3 weeks (Figure 38). […]

[6] = tested on: Fibroblasts isolated from the cornea/sclera of New Zealand White rabbits; experiment: Quantification of cell-spread area (ImageJ); assay type: cell-based; settings: various gel cultures, ANOVA p<0.05
From the text: (§2) Reference is now made to the figures, wherein: • Figures 1A to 1M represent a sorted list of some exemplary peptides capable of forming hydrogels. These peptides are examples in which the entire peptide consists of a single linear amphiphilic sequence. Peptides which are forming hydrogels are named with a short code, but their individual sequence is disclosed. The peptides of these examples consist of a sequence of natural amino acids containing 3 to 7 amino acids. […] (a, b) The high mechanical strengths of different peptide hydrogels at 20 mg/mL concentration was determined by measuring storage moduli (G') as a function of angular frequency under 0.1% strain, at 25°C and 50°C respectively. […] (c) Mechanical strength is a function of concentration, as determined from oscillatory frequency sweep studies using Ac-LD6 (Ac-LIVAGD) (L) under 0.1% strain at 25°C. […] LK6 gels were therefore casted at different concentrations and their stiffness was measured (average ± s.d. of triplicates). As expected, G' values increased with peptide concentration and it was determined that a working concentration of 12 mM afforded gels with sufficient mechanical integrity to withstand handling. […]

V79 = experiment: Direct contact V79 colony assay (GLP); assay type: cell-based
HepG2 cells [7] = experiment: Quantification of cell-spread area (ImageJ); assay type: cell-based; settings: gel culture in the presence or absence of RGD
From the text: Confocal images after calcein staining were processed using ImageJ (NIH, USA) to obtain the average cell-spread area under various culture conditions. For cells in 3D gel culture, images used for quantification were mergers of several z-stacks to capture the maximum cell-spread area. In all cases, at least three independent experiments with at least two locations selected from each culture were used for averaging.

[8] = tested on: Fibroblasts isolated from the cornea/sclera of New Zealand White rabbits; experiment: 3D primary cell culture on gels, calcein live-cell staining; assay type: cell-based; settings: purified gels +/- various concentrations of CRGD, four days
From the text: as §2

skins of guinea pigs = experiment: Direct contact Kligman maximization test (GLP, ISO 10993-10); assay type: in vivo

CC[C@H](C)[C@H](NC(=O)[C@H](CC(C)C)NC(C)=O)C(=O)N[C@H](C(=O)N[C@@H](C)C(=O)NCC(=O)N[C@@H](CC(=O)O)C(=O)O)C(C)C [Ac-LD6 (L), Ac-LIVAGD-COOH] (Ac-LIVAGD-OH)
concentration at which formation of aggregates is observed [1]: 100 µg/mL
concentration at which peptide monomers align to form fibrous structures [1]: 1000 µg/mL

LIVAGK [LK6]
gel stiffness on LK6-doping [2]: relatively stiff
material needed for gelation [3]: 25 mg/mL
working concentration at which gels are formed [3]: 12 mM
gel degradation after water soak [4]: completely degraded

LIVAGKC [LK6C, cross-linkable peptide, LK6 modified with a cysteine residue at the C-terminus; forms hydrogels]
shape and stiffness after water soak ([2]; 12 mM gel, 2 or 24 hours cast-and-soak or 22 hours in situ oxidation with 0.06% H2O2, up to four days of water soak): maintained their shapes and in fact, became stiffer
stiffness after water soak ([2]; 12 mM gel, 24 hours of water soak): broke down and lost their stiffness
stiffness after water soak ([2]; 12 mM gel, two hours of water soak): could maintain their stiffness
stiffness (G') following oxidation ([2]; compared to non-oxidised gels, different oxidation regimes): either maintained or increased
gel stiffness on LK6-doping [2]: relatively stiff
linear viscoelastic (LVE) limit (elasticity), increase following oxidation ([2]; oxidised vs non-oxidised gels, cast-and-soak 2-24 hours 0.06% H2O2 or in situ 24 hours 0.03-0.1% H2O2): 2.4-3.8 fold
cell viability (calcein staining) (HepG2 cells [5]): viable
cell-spread area vs 2D culture [6]: spreaded more in 2D culture compared to those in the various gel cultures
material needed for gelation [3]: 10 mg/mL
working concentration at which gels are formed [3]: 12 mM
toxicity (V79): no significant toxicity
cell spreading vs regular 2D culture (HepG2 cells [7]): insignificant effects (p>0.05)
cell viability (calcein staining) [8]: viable fibroblasts were seen in all cases
sensitization (skins of guinea pigs): no sensitization
